In US5120835A, “Saccharide derivatives of protocatechualdehyde” (Kureha Chemical Industry Co., Ltd., priority 1989, dated 1992):
Where two headings read alike, the source gives them in different places.

How the values were obtained:
granuloma growth = assay: Granuloma growth inhibiting effect (paper disk implanted subcutaneously in rats); assay type: in vivo, male Donryu rats; settings: oral, 10 days; for Granuloma Dry weight (mean): control 131.9 mg
Description: Effects of inhibiting granuloma growth were investigated by the method proposed by Fujimura et al. [Oyo Yakuri, 19 (3), 329 (1980)], using five-week old male Donryu rats. As paper disks, filter papers measuring 13 mm.0. and 28 mg and soaked in […] CMC solution (containing 0.1 mg/ml of 1 million unit dihydroxystreptomycin and penicillin, respectively) were used. A paper disk was implanted subcutaneously in the back of the rat under anesthesia. The test drugs dispersed in 0.3% CMC solutions were administered orally for 10 days; then, on the 11th day the granulomas were removed and their weights were measured. To the control group were administered the original 0.3% CMC solution containing no test drug.

[1] = Acute toxicity in mice (LD50, Litchfield-Wilcoxon method); settings: mouse, in vivo, Jcl:ICR female mice, observed for 7 days
Description: The prescribed amounts of the test drugs dispersed in 0.3% CMC aqueous solution at a rate of 20 mg/ml for oral administration and the test drugs dissolved in 10% ethanol isotonic sodium chloride solution as a rate of 200 mg/ml for intraperitoneal administration were applied using gastric probes and syringes, respectively.

[2] = Toxicity compared in words; assay type: in vivo; settings: from LD50 of reference against LD50 of Table 1
male rats = settings: DRUGS IN JAPAN (ETHICAL DRUGS), 9th Edition (1985), p.105; cited from earlier work
male mice = settings: DRUGS IN JAPAN (ETHICAL DRUGS), 9th Edition (1985), p.105; cited from earlier work
leukocytic migration = settings: in vitro, low concentration level; cited from earlier work
[3] = tested on: blood platelet agglutination; settings: in vitro, low concentration level; cited from earlier work
[4] = in vivo; cited from earlier work
[5] = ip, intraperitoneal, dissolved in 10% ethanol isotonic sodium chloride solution, read-out: LD50, Intraperitoneal Administration
[6] = oral, dispersed in 0.3% CMC aqueous solution, read-out: LD50, Oral Administration

| Structure (SMILES) | Granuloma Inhibition rate (granuloma growth; 10 mg/kg/day) | Granuloma Dry weight (mean) (granuloma growth; 10 mg/kg/day) | Granuloma Inhibition rate (granuloma growth; 50 mg/kg/day) | Granuloma Dry weight (mean) (granuloma growth; 50 mg/kg/day) | LD50 at 168 h [1, 5] | LD50 at 168 h [1, 6] | Toxicity compared with PAL and the compounds of the present invention (in words) [2] | Granuloma Inhibition rate (granuloma growth; 3 mg/kg/day) | Granuloma Dry weight (mean) (granuloma growth; 3 mg/kg/day) | LD50 value (male rats) | LD50 value (male mice) | Inhibiting leukocytic migration (in words) (leukocytic migration) | Inhibiting blood platelet agglutination (in words) [3] | Metabolic rate (in words) [4] |
| --- | --- | --- | --- | --- | --- | --- | --- | --- | --- | --- | --- | --- | --- | --- |
| CO[C@H]1O[C@@H]2COC(c3ccc(OC(=O)c4ccccc4)c(OC(=O)c4ccccc4)c3)O[C@H]2[C@H](O)[C@H]1O (stereo partly drawn) [Ia1, Methyl-4,6-O-(3',4'-dibenzoyloxybenzylidene)-α-D-glucopyranoside] | 29.8% | 92.6 mg | 43.7% | 74.3 mg | 1900 mg/kg | > 4000 mg/kg |  |  |  |  |  |  |  |  |
| CO[C@H]1O[C@@H]2COC(c3ccc(O)c(O)c3)O[C@H]2[C@H](O)[C@H]1O (stereo partly drawn) [Ib1, Methyl-4,6-O-(3',4'-dihydroxybenzylidene)-α-D-glucopyranoside] | 30.7% | 91.4 mg | 50.0% | 66.0 mg | > 3000 mg/kg | > 4000 mg/kg |  |  |  |  |  |  |  |  |
| COc1ccc2c(c1)c(CC(=O)O)c(C)n2C(=O)c1ccc(Cl)cc1 [Indomethacin, indomethacin] |  |  |  |  |  |  | more toxic than both PAL and the compounds of the present invention | 45.9% | 71.3 mg | 29 mg/kg | 30.2 mg/kg |  |  |  |
| O=Cc1ccc(O)c(O)c1 [PAL, protocatechualdehyde] |  |  | 34.2% | 86.8 mg |  |  |  |  |  |  |  | shows a suitable effect | shows a suitable effect | higher metabolic rate |
